Common to all, as to assay: Greenhouse postemergence herbicidal effect (visual injury)
Holding throughout (type): in vivo

Assay [1] deals with POLCO, Polygonum convolvulus (wild buckwheat). The text has this: (§1) Seeds of the desired test plant species were planted in a 90:10% v/v (volume/volume) mixture of PRO-MIX® BX (Premier Tech Horticulture, Quakertown, Pa., USA) and PROFILE® GREENS GRADE™ (Profile Products LLC, Buffalo Grove, Ill., USA) planting mixture, which typically has a pH of 5.2 to 6.2 and an organic matter content of at least 50 percent, in plastic pots with a surface area of 103.2 square centimeters (cm^2). In some aspects, to help ensure good germination and healthy plants, a fungicide treatment and/or other chemical or physical treatment was applied. The plants were grown for 7-36 days (d) in a greenhouse with an approximate 14-hour (h) photoperiod which was maintained at about 23° C. during the day and 22° C. during the night. Nutrients and water were added on a regular basis and supplemental lighting was provided with overhead metal halide 1000-Watt lamps as necessary. The plants were employed for testing when they reached the second or third true leaf stage.
(§2) Emulsifiable concentrates of each of each pyridine carboxylate herbicide (Compound A or Compound B) were prepared at 100 grams acid equivalent per liter (g ae/L). The emulsifiable concentrates also included a safener, cloquintocet-mexyl, at 120 grams active ingredient per liter (g ai/L), unless otherwise noted below. An aliquot of each emulsifiable concentrate was placed in a 25 mL glass vial and diluted with an aqueous mixture of 1.25% (v/v) ACTIROB® B esterified rapeseed oil (Bayer Crop Science, Research Triangle Park, N.C., USA) or MSO® Concentrate with LECI-TECH® methylated soybean oil (Loveland Products, Loveland, Colo., USA) to obtain concentrated stock solutions at the highest application rate for each herbicide, based upon a 12 milliliter (mL) application volume at a rate of 187 liters per hectare (L/ha). The concentrated stock solutions were further diluted with an aqueous mixture of 1.25% v/v ACTIROB® B or MSO® Concentrate with LECI-TECH® to obtain stock solutions at reduced application rates for each herbicide. Spray solutions of the herbicide combinations (Compound A or Compound B plus ACCase inhibitor herbicide) were prepared by adding weighed amounts or aliquots of the ACCase inhibitor herbicide to the stock solutions of Compound A or Compound B to form 12-mL spray solutions in two-way combinations.
(§3) The spray solutions were applied to the plant material with an overhead Mandel track sprayer equipped with 8002E nozzles calibrated to deliver 187 L/ha over an application area of 0.503 square meters (m^2) at a spray height of 18 inches (43 centimeters (cm)) above the average plant canopy. Control plants were sprayed in the same manner with the solvent blank. All pyridine carboxylate herbicide (component a) application rates are given as “g ae/ha” and all ACCase inhibitor herbicide (component b) application rates are given as “g ai/ha.”
(§4) The treated plants and control plants were placed in a greenhouse as described above and watered by sub-irrigation to prevent wash-off of the test compounds. After 20-22 d, the condition of the test plants as compared with that of the control plants was determined visually and scored on a scale of 0 to 100 percent where 0 corresponds to no injury and 100 corresponds to complete kill.

Assay [2] concerns HELAN, Helianthus annuus (common sunflower).
Excerpt: as §1, §2, §3, §4

The test system of assay [3] is KCHSC, Kochia scoparia (kochia).
Excerpt: as §1, §2, §3, §4

Assay [4] has as its system BRSNW, Brassica napus (winter rape).
Excerpt: as §1, §2, §3, §4

The test system of assay [5] is ABUTH, Abutilon theophrasti (velvetleaf).
Excerpt: as §1, §2, §3, §4

Assay [6] deals with SETFA, Setaria faberi (giant foxtail).
Excerpt: as §1, §2, §3, §4

Assay [7] relates to RUMOB, Rumex obtusifolius (broad-leaf dock).
Excerpt: as §1, §2, §3, §4

For assay [8], the system named is STEME, Stellaria media (chickweed).
Excerpt: as §1, §2, §3, §4

The subject of assay [9] is GLXMA, Glycine max (soybean).
Excerpt: as §1, §2, §3, §4

Assay [10] has as its system SORVU, Sorghum vulgare (grain sorghum).
Excerpt: as §1, §2, §3, §4

In assay [11] the test system is IPOHE, Ipomoea hederacea (ivyleaf morningglory).
Excerpt: as §1, §2, §3, §4

Assay [12] concerns CIRAR, Cirsium arvense (Canadian thistle).
Excerpt: as §1, §2, §3, §4

For assay [13], the system named is VIOTR, Viola tricolor (wild pansy).
Excerpt: as §1, §2, §3, §4

In assay [14] the test system is LEFCH, Leptochloa chinensis (Chinese sprangletop).
Excerpt: as §1, §2, §3, §4

Assay [15] relates to BRSNN, Brassica napus (spring rape). The settings on record: 70 g ai/ha.
Excerpt: as §1, §2, §3, §4

Assay [16] concerns ALOMY, Alopecurus myosuroides (blackgrass).
Excerpt: as §1, §2, §3, §4

Assay [17] deals with CYPES, Cyperus esculentus (nutsedge).
Excerpt: as §1, §2, §3, §4

Assay [18] relates to AVEFA, Avena fatua (wild oat).
Excerpt: as §1, §2, §3, §4

In assay [19] the test system is LOLMU, Lolium multiflorum (Italian ryegrass).
Excerpt: as §1, §2, §3, §4

For assay [20], the system named is DIGSA, Digitaria sanguinalis (large crabgrass).
Excerpt: as §1, §2, §3, §4

Assay [21] concerns ECHCG, Echinochloa crus-galli (barnyardgrass).
Excerpt: as §1, §2, §3, §4

Assay [22] has as its system LOLMG, Lolium multiflorum subsp. gaudini (annual ryegrass).
Excerpt: as §1, §2, §3, §4

For another assay, the system named is ZEAMX, Zea mays (maize).
Excerpt: as §1, §2, §3, §4

The test system of assay [23] is ORYSA, Oryza sativa (common rice).
Excerpt: as §1, §2, §3, §4

Consider `CCSC(C)CC1CC(=O)C(C(CC)=NOC/C=C/Cl)=C(O)C1` (stereo not shown) [Clethodim, reference compound], for which the “% visual injury, Obs” value in assay [1] (70 g ai/ha) is 0%; in [2] (70 g ai/ha), 0%; in assay [3] (70 g ai/ha), 0%; in assay [4] (70 g ai/ha), 0%; in assay [5] (70 g ai/ha), 0%; in assay [6] (70 g ai/ha), 90%. Further, the “% visual injury, Obs” value in assay [7] (70 g ai/ha) came out at 0%; in assay [8] (70 g ai/ha), 0%; in [9] (70 g ai/ha), 5%; in [10] (70 g ai/ha) it was 98%; in [11] (70 g ai/ha), 0%; in [12] (70 g ai/ha) it was 0%. The “% visual injury, Obs” value amounted to 0% in assay [13] (70 g ai/ha) and 95% in [14] (70 g ai/ha).

On to `CCCC(=NOCC)C1=C(O)CC(CC(C)SCC)CC1=O` (stereo not shown) [Sethoxydim, reference compound], for which the “% visual injury, Obs” value in assay [15], in [3] (70 g ai/ha), in assay [7] (70 g ai/ha) and in [8] (70 g ai/ha) was 0% each time.

On to Fluazifop [reference compound], for which the “% visual injury, Obs” value in assay [1] (POLCO, Compound A 0 g/ha, Fluazifop 105 g/ha) turned out to be 0%; in assay [2] (HELAN, Compound A 0 g/ha, Fluazifop 105 g/ha) it was 0%; in assay [16] (105 g ai/ha) it was 93%; in assay [16] (ALOMY, Compound A 0 g/ha, Fluazifop 105 g/ha) it was 85%; in [17] (105 g ai/ha), 5%; in [17] (CYPES, Compound A 0 g/ha, Fluazifop 105 g/ha), 0%. For the same molecule, the “% visual injury, Obs” value is listed as 93% in assay [18] (105 g ai/ha); 95% in [18] (AVEFA, Compound A 0 g/ha, Fluazifop 105 g/ha); 0% in assay [3] (KCHSC, Compound A 0 g/ha, Fluazifop 105 g/ha); 0% in [4] (BRSNW, Compound A 0 g/ha, Fluazifop 105 g/ha); 0% in [5] (ABUTH, Compound A 0 g/ha, Fluazifop 105 g/ha); 90% in assay [6] (105 g ai/ha). Also, the “% visual injury, Obs” value in assay [6] (SETFA, Compound A 0 g/ha, Fluazifop 105 g/ha) is reported as 85%; in [7] (RUMOB, Compound A 0 g/ha, Fluazifop 105 g/ha), 0%; in assay [19] (105 g ai/ha), 80%; in assay [19] (LOLMU, Compound A 0 g/ha, Fluazifop 105 g/ha) it was 88%; in assay [8] (STEME, Compound A 0 g/ha, Fluazifop 105 g/ha) it was 0%; in assay [20] (105 g ai/ha) it was 95%. Also, the “% visual injury, Obs” value is on record as 95% in assay [20] (DIGSA, Compound A 0 g/ha, Fluazifop 105 g/ha); 28% in assay [9] (GLXMA, Compound A 0 g/ha, Fluazifop 105 g/ha); 100% in assay [10] (SORVU, Compound A 0 g/ha, Fluazifop 105 g/ha); 95% in assay [21] (105 g ai/ha); 95% in assay [21] (ECHCG, Compound A 0 g/ha, Fluazifop 105 g/ha); 0% in assay [11] (IPOHE, Compound A 0 g/ha, Fluazifop 105 g/ha). Besides, the “% visual injury, Obs” value in assay [12] (CIRAR, Compound A 0 g/ha, Fluazifop 105 g/ha) was 5%; in [13] (VIOTR, Compound A 0 g/ha, Fluazifop 105 g/ha), 3%; in assay [14] (105 g ai/ha), 100%; in [14] (LEFCH, Compound A 0 g/ha, Fluazifop 105 g/ha), 98%.

Consider `CCON=C(CC)C1=C(O)CC(c2c(C)cc(C)cc2C)CC1=O` (stereo not shown) [Tralkoxydim, 2-[1-(ethoxyimino)propyl]-3-hydroxy-5-mesitylcyclohex-2-enone], for which the “% visual injury, Obs” value is 40% in [6] (100 g ai/ha), 65% in assay [10] (100 g ai/ha) and 70% in assay [22] (100 g ai/ha).

For the molecule `C#CCOC(=O)c1nc(-c2ccc3cc[nH]c3c2F)c(F)c(N)c1Cl` [Compound B, propargyl 4-amino-3-chloro-5-fluoro-6-(7-fluoro-1H-indol-6-yl)pyridine-2-carboxylate], the “% visual injury, Obs” value is listed as 10% in assay [10] (7.5 g ae/ha, with cloquintocet-mexyl) and 20% in [10] (10 g ae/ha, with cloquintocet-mexyl).

Fenoxaprop: the “% visual injury, Obs” value with ZEAMX, Zea mays (maize) (46 g ai/ha) amounted to 100%; in assay [16] (46 g ai/ha) it was 0%; in assay [17] (46 g ai/ha), 0%; in [18] (46 g ai/ha), 68%; in assay [6] (46 g ai/ha), 100%; in [19] (46 g ai/ha) it was 5%. Further, the “% visual injury, Obs” value in assay [23] (46 g ai/ha) is listed as 35%; in [20] (46 g ai/ha), 96%; in assay [21] (46 g ai/ha), 100%; in assay [22] (46 g ai/ha) it was 0%.

For `C#CCOC(=O)[C@@H](C)Oc1ccc(Oc2ncc(Cl)cc2F)cc1`, the “% visual injury, Obs” value is recorded as 90% with ZEAMX, Zea mays (maize) (30 g ai/ha); 98% in [6] (30 g ai/ha); 83% in assay [23] (30 g ai/ha); 15% in [22] (30 g ai/ha).

`CCc1cc(C)cc(CC)c1-c1c(OC(=O)C(C)(C)C)n2n(c1=O)CCOCC2` [Pinoxaden]: the “% visual injury, Obs” value in the assay with ZEAMX, Zea mays (maize) (30 g ai/ha) was determined as 5%; in assay [6] (30 g ai/ha), 10%; in assay [23] (30 g ai/ha), 99%; in assay [22] (30 g ai/ha) it was 94%.

As for `CCOC(=O)[C@@H](C)Oc1ccc(Oc2cnc3cc(Cl)ccc3n2)cc1` [Quizalofop-P-ethyl, reference compound], the “% visual injury, Obs” value stood at 100% in assay [6] (SETFA, Compound A 0 g/ha, Quizalofop-P-ethyl 75 g/ha) and 100% in assay [14] (LEFCH, Compound A 0 g/ha, Quizalofop-P-ethyl 75 g/ha).

`COC(=O)[C@@H](C)Oc1ccc(Oc2ncc(C(F)(F)F)cc2Cl)cc1` [Haloxyfop-R-methyl, reference compound]: the “% visual injury, Obs” value in [6] (SETFA, Compound A 0 g/ha, Haloxyfop-R-methyl 70 g/ha) was 100%; in assay [14] (LEFCH, Compound A 0 g/ha, Haloxyfop-R-methyl 70 g/ha), 100%.

For the origin of these results see US20210392892A1, “COMPOSITIONS COMPRISING PYRIDINE CARBOXYLATE HERBICIDES AND ACETYL COA CARBOXYLASE (ACCASE) INHIBITOR HERBICIDES” (Corteva Agriscience LLC, priority 2018, published 2021).
